In PubChem BioAssay AID977605 (Broad Institute, 2014):
The source made the active and inactive calls.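 Rule for the calls: active = fitted curve reaches 40% activation below the top valid tested dose, in every test run; inconclusive = test runs disagree on the call; inactive = the rest, including effects opposite to the expected direction.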

Assay: E-selectin inducers in HUVECs, dose response, imaging, HUVEC, cherry-picked samples (AID 977605);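 note: signal is the share of imaged cells scored positive for E-selectin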
Conditions: HUVEC E-selectin immunostaining, percent of TNF-alpha response over vehicle

Structure (SMILES)	activation (at 19.5 µM (top of the series))	also measured
Cc1ccccc1CCN1CCCC(CN(C)C(=O)c2ccc3ncccc3c2)C1 (stereo not given)	36.6% (inactive)	
Cc1[nH]c(=O)c(C#N)cc1-c1ccncc1	-0.055% (inactive)	
Cc1noc(C)c1NC(=O)Nc1ccc2c(c1)CC(=O)N([C@@H](C)CO)C[C@H](C)[C@@H](CN(C)S(=O)(=O)c1ccccc1)O2	-0.1% (inactive)	
CCOC(=O)C1(Cc2ccccc2C)CCCN(C(=O)c2ccnn2C)C1 (stereo not given)	-0.138% (inactive)	
C[C@@H]1CN([C@@H](C)CO)C(=O)c2cc(NS(=O)(=O)c3cn(C)cn3)ccc2O[C@H]1CN(C)C(=O)Nc1ccc(F)cc1		activation (at 21 µM (top of the series)): 0.066% (inactive)
COc1ccc(-c2nc(NC(=O)Cn3c(=O)oc4ccccc43)sc2C)cc1	1.37% (inactive)	
CCCNC(=O)N(C)C[C@@H]1Oc2ncc(C3=CCCC3)cc2C(=O)N([C@H](C)CO)C[C@H]1C	0.267% (inactive)	
Cc1ccc(S(=O)(=O)NNC(=O)c2cccc(O)c2)cc1	-0.007% (inactive)	
C[C@H](CO)N1C[C@H](C)[C@H](CN(C)S(=O)(=O)c2ccccc2)Oc2c(NC(=O)C3CCOCC3)cccc2C1=O		activation (at 21 µM (top of the series)): 3.15% (inactive)
CC(C)NC(=O)N(C)C[C@@H]1Oc2ccc(NC(=O)CCN3CCOCC3)cc2C(=O)N([C@@H](C)CO)C[C@H]1C	0.429% (inactive)	
COc1ccc(S(=O)(=O)N(C)C[C@@H]2Oc3c(NS(=O)(=O)c4ccc(F)cc4)cccc3C(=O)N([C@H](C)CO)C[C@@H]2C)cc1	-0.15% (inactive)	
O=C(c1cc(COc2ccc(F)cc2Cl)on1)N(Cc1ccncc1)CC1CCCO1 (stereo not given)	-0.279% (inactive)	
C[C@@H]1CN([C@H](C)CO)C(=O)c2cccc(NC(=O)Nc3ccc(F)cc3)c2O[C@H]1CN(C)Cc1ccncc1	-0.015% (inactive)	
CC(C)NC(=O)Nc1ccc2c(c1)C(=O)N([C@@H](C)CO)C[C@H](C)[C@@H](CN(C)Cc1ccc(C(F)(F)F)cc1)O2	-0.03% (inactive)	
COc1cccc(CNC(=O)CN2C(=O)COc3ccc(S(=O)(=O)N4CCCCCC4)cc32)c1	-0.081% (inactive)	
C[C@H](CO)N1C[C@H](C)[C@@H](CN(C)C(=O)NC2CCCCC2)Oc2ccc(NC(=O)Nc3ccc(C(F)(F)F)cc3)cc2C1=O		activation (at 21 µM (top of the series)): -0.177% (inactive)
C[C@H](CO)N1C[C@H](C)[C@H](CN(C)C)Oc2ccc(NC(=O)Cc3cn(C)c4ccccc34)cc2C1=O	8.16% (inactive)	
N#Cc1ccc(-c2csc(NC3=NCCCCC3)n2)cc1	-0.002% (inactive)	

Structure (SMILES)	activation (at 19.5 µM (top of the series))	also measured
COc1ccccc1OCC(=O)Nc1ccc(S(=O)(=O)N2CCN(C)CC2)cc1	-0.127% (inactive)	
C[C@@H]1CN([C@H](C)CO)C(=O)c2cc(NS(=O)(=O)c3cn(C)cn3)ccc2O[C@H]1CN(C)Cc1ccncc1		activation (at 21 µM (top of the series)): -0.069% (inactive)
Cc1noc(C)c1NC(=O)Nc1ccc2c(c1)CC(=O)N([C@@H](C)CO)C[C@H](C)[C@@H](CN(C)C(=O)Nc1ccc(F)cc1)O2	-0.02% (inactive)	
C[C@@H]1CN([C@H](C)CO)C(=O)Cc2cc(NC(=O)Cc3cn(C)c4ccccc34)ccc2O[C@H]1CN(C)Cc1ccc(C(F)(F)F)cc1		activation (at 21 µM (top of the series)): 14% (inactive)
CN1c2ccc(C#Cc3cccnc3)cc2[C@@H]2[C@@H](CCN2C(=O)C2CCC2)[C@H]1CO		activation (at 18 µM (top of the series)): -0.065% (inactive)
C[C@@H]1CN([C@@H](C)CO)C(=O)c2cccc(NC(=O)Nc3ccc(F)cc3)c2O[C@@H]1CN(C)Cc1ccncc1	-0.005% (inactive)	
Cc1cc(C)c2sc(NNC(=O)C3COc4ccccc4O3)nc2c1 (stereo not given)	0.141% (inactive)	
C[C@H]1CN([C@@H](C)CO)C(=O)Cc2cc(NC(=O)C3CCCCC3)ccc2O[C@H]1CN(C)C(=O)NC1CCCCC1	-0.185% (inactive)	
COc1ccc(CN(C)C[C@H]2Oc3ccc(NC(=O)CCCN(C)C)cc3C(=O)N([C@H](C)CO)C[C@H]2C)cc1		activation (at 21 µM (top of the series)): -0.188% (inactive)
COc1ccc(OCCN2CCN(S(=O)(=O)c3ccccc3C(F)(F)F)CC2)cc1	-0.023% (inactive)	
CC(C)(C)S(=O)(=O)c1cnc(-c2cnccn2)nc1N	-0.028% (inactive)	
C[C@H]1CN([C@@H](C)CO)C(=O)c2cc(NC(=O)Cn3cnnn3)ccc2O[C@H]1CN(C)Cc1ccc(Oc2ccccc2)cc1		activation (at 21 µM (top of the series)): 0.004% (inactive)
COc1ccc(S(=O)(=O)Nc2cccc3c2O[C@H](CN(C)C(=O)Nc2c(C)noc2C)[C@@H](C)CN([C@H](C)CO)C3=O)cc1		activation (at 21 µM (top of the series)): -0.117% (inactive)
Cc1nc(N2CCN(c3ccccn3)CC2)c2c(C)c(C(=O)Nc3ccc(F)cc3Cl)sc2n1	-0.158% (inactive)	
COc1ccc(S(=O)(=O)N(C)C[C@H]2Oc3ccc(NC(=O)c4ccncc4)cc3C(=O)N([C@@H](C)CO)C[C@@H]2C)cc1	-0.047% (inactive)	
Cc1noc(C)c1S(=O)(=O)Nc1ccc2c(c1)CC(=O)N([C@H](C)CO)C[C@@H](C)[C@H](CN(C)C(=O)Nc1cccc3ccccc13)O2	-0.155% (inactive)	
C[C@@H]1CN([C@@H](C)CO)C(=O)c2cc(NC(=O)Cc3ccccc3)ccc2O[C@@H]1CN(C)Cc1ccc(Cl)c(Cl)c1	0.002% (inactive)	
